Columns and labels:
[1] = target: Human LATS1 kinase domain protein (Homo sapiens (Human), UniProt O95835); assay: LATS1 Biochemical Caliper Assay; details: 400 micromolar ATP
Experimental: Human LATS1 kinase domain protein was purchased from Carnabio (catalogue number 01-123), which harbors the catalytic domain of amino acids 589-1130, and was co-purified with human His-tagged MOBKL1A (NP_775-739). 5 microlitre of enzyme buffer, 100 nL of compounds and 5 microlitre of localising aid buffer were added into 384-well plates. The final assay reaction mix contains 100 mM HEPES, pH7.5, 0.1% BSA, 0.01% Triton X-100, 1 mM DTT, 10 mM MgCl2, 10 micromolar Sodium Orthovanadate, 10 micromolar Beta-Glycerophosphate, 400 micromolar ATP, 1% DMSO, 1.1 nM LATS1 enzyme (Carnabio, 01-123), 1 micromolar localising aid of FAM-[…]-COOH (SEQ ID NO: 24) (NanoSyn). The plates were incubated at 25° C. for 3 hours. 40 microlitre of stop buffer with 25 mM EDTA (NanoSyn) was added to each well to terminate the reaction. Localising aids and products were separated electrophoretically using the microfluidic-based Caliper Labchip 3000 Drug Discovery System (Caliper Life Sciences). Plates were read using blue laser excitation and green fluorescence detection and quantified by fluorescence intensity. […] According to this assay the LATS1 IC50 values in micromolar for the following compounds are: […]

[2] = tested on: Phospho-YAP (SER127) in HaCaT cells; assay: pYAP HTRF Assay (HaCaT Cells); type: cell-based, human; details: Homo sapiens, 2 hours
In short: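 HaCaT cells at 5500 cells/well were cultured 48 hours at 37° C, then treated with compound for 2 hours. Phospho-YAP (Ser127) was detected by HTRF after an overnight (20 hrs) room-temperature incubation, read as the 665 nm/620 nm ratio.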

[3] = tested on: YAP nuclear translocation in HaCaT cells; assay: YAP Translocation Assay (HaCaT Cells); type: cell-based, human; details: Homo sapiens, 24 hours
In short: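 HaCaT cells (20,000/well) in DMEM + 10% FBS were plated overnight at 37° C, then exposed to compound for 24 h at 37° C. Cells were fixed with PFA, permeabilized with 0.1% Triton/1.5% BSA and imaged by high-content imaging.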

[4] = tested on: human limbal stem cells (LSCs); assay: Human limbal stem cell population expansion: expansion factor; type: cell-based; details: 10 micromolar, XVIVO15 medium, two passages, ratio of expanded to seeded cells
Experimental: (§1) Cells were cultured at 37° C. in 5% CO2.
(§2) For each compound, two sets of cultures were generated. A first set of cultures was fixed in 4% PFA for 20 minutes at room temperature after cells isolated from the cornea had attached to the cell culture dish (typically 24 h after cell plating). A second set of cultures was fixed in 4% PFA for 20 minutes at room temperature after being cultured for two passages. Cells were passaged when they reached 90-100% confluence.
To evaluate cell expansion ratios, nuclei were counted using a Zeiss LSM 880 confocal microscope. The expansion factor was then determined by calculating the ratio of the expanded population of cells to population of seeded cells.

[5] = tested on: human limbal stem cells (LSCs); assay: Human limbal stem cell population expansion: percentage of p63alpha-positive cells; type: cell-based; details: 10 micromolar, XVIVO15 medium
Experimental: as §1, §2
In order to observe that the expanded cell population expressed p63alpha, this was measured by immunohistochemistry as follows. The fixed cell cultures were permeabilized and blocked in a blocking solution of 0.3% Triton X-100 (Sigma-Aldrich) and 3% donkey serum in PBS for 30 minutes. Cells were then labeled with primary antibody in the blocking solution for 12 hours at 4° C. Primary antibody used was p63alpha from Cell Signalling. Samples were washed in PBS three times and donkey-raised secondary antibody Alexa Fluor 488 (Molecular Probes) at 1:500 dilution were applied for 30 minutes at room temperature. Cell nuclei were then labeled in a solution of 0.5 micromolar of Sytox Orange (ThermoFisher) in PBS for 5 minutes at room temperature.
To evaluate the percentage of p63alpha-positive cells, the number of cells labeled by the anti-p63alpha antibody was counted and the total number of cells was determined by counting the number of nuclei stained by Sytox Orange. The proportion of p63alpha-positive cells was then determined by calculating the percentage of Sytox-orange-positive nuclei that also expressed p63alpha.

[6] = tested on: human corneal endothelial cells (CECs); assay: Human corneal endothelial cell population expansion: fold cell expansion; type: cell-based; details: 10 micromolar compound, X-VIVO15 medium, 10 days, ratio of expanded to seeded cells
Experimental: as §1
(§3) For each compound, two sets of cultures were generated. A first set of cultures was fixed in 4% PFA for 20 minutes at room temperature after cells isolated from the cornea had attached to the cell culture dish (typically 24 h after cell plating). A second set of cultures was fixed in 4% PFA for 20 minutes at room temperature 10 days after the first one.
(§4) To measure cell density in all fixed cultures, the number of nuclei stained with Sytox Orange (ThermoFisher) were counted per surface area as follows: fixed cell cultures fixed were permeabilized in a solution of 0.3% Triton X-100 (Sigma-Aldrich). Cells were then labeled in a solution of 0.5 micromolar of Sytox Orange in PBS for 5 minutes at room temperature. Nuclei were counted under a Zeiss epifluorescence microscope. The expansion factor was then determined by calculating the ratio of the expanded population of cells to population of seeded cells.

[7] = tested on: human corneal endothelial cells (CECs); assay: Human corneal endothelial cell population expansion: endothelial cell density in vitro; type: cell-based; details: 10 micromolar compound, X-VIVO15 medium, 10 days
Experimental: as §1, §3, §4

Sequence of Human LATS1 kinase domain protein (O95835 whole entry, looked up, the tested form may be a part): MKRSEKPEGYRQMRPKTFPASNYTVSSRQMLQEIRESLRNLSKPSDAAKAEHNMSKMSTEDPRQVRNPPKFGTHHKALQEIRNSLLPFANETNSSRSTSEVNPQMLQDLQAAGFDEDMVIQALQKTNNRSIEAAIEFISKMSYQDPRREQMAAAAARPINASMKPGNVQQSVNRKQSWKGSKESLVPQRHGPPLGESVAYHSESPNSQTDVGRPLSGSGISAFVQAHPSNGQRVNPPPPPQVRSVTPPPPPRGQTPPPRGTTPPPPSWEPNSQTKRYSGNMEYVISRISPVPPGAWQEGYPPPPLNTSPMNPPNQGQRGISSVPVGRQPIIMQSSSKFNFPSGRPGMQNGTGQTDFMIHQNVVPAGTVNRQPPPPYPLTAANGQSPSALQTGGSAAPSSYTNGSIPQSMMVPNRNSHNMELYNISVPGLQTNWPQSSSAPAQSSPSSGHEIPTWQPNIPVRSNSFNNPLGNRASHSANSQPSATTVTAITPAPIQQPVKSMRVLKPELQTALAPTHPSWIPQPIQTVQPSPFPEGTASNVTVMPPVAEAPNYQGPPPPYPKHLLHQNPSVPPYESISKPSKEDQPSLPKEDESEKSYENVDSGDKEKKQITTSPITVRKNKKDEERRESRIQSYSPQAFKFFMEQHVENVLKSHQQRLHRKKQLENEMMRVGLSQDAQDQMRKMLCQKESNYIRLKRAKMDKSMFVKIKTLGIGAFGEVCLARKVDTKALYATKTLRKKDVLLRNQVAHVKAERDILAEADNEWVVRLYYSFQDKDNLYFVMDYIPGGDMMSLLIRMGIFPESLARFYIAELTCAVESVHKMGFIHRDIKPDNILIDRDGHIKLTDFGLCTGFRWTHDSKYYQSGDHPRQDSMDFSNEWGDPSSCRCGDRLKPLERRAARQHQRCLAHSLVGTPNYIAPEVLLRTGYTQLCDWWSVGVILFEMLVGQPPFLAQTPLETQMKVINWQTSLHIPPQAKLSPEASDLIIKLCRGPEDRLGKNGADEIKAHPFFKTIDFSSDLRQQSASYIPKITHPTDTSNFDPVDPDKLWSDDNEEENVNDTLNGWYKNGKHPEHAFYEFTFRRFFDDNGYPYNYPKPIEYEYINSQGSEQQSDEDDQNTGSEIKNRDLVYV
Sequence of Human LATS1 kinase domain protein (Q7L9L4 whole entry partner, looked up, the tested form may be a part): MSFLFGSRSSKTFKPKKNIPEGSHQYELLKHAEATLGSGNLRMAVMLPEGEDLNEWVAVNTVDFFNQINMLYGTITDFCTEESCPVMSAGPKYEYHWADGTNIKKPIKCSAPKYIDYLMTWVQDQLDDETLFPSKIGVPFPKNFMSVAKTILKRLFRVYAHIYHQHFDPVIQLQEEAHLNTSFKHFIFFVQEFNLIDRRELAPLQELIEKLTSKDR

| IC50 [1] [nM] | SMILES | IC50 [2] [nM] | EC50 [3] [nM] | Expansion factor [4] | Percentage of p63a-positive cells [5] [%] | Expansion factor (Fold Cell expansion) [6] | Endothelial Cell density in vitro [7] [cells/mm^2] |
| --- | --- | --- | --- | --- | --- | --- | --- |
| 34 | CCCNc1nc(-c2ccncc2)nc2cnccc12 [Example 14, N-propyl-2-(pyridin-4-yl)pyrido[3,4-d]pyrimidin-4-amine] | 7310 | 4250 | 1423 | 93 | 337 | 3271 |
| 12 | CC(C)(O)CC(C)(C)Nc1nc(-c2ccncc2)nc2cnccc12 [Example 49, 2,4-dimethyl-4-{[2-(pyridin-4-yl)pyrido[3,4-d]pyrimidin-4-yl]amino}pentan-2-ol] | 607 | 1170 | 2029 | 92 | 426 | 3873 |
| 22 | c1cc(-c2nc(NC3CCCC3)c3ccncc3n2)ccn1 [Example 65, N-cyclopentyl-2-(pyridin-4-yl)pyrido[3,4-d]pyrimidin-4-amine] | 895 | 1990 | 1048 | 87 | 203 | 1702 |
|  | CC(C)(C)Nc1cc(-c2ccncc2)nc2cnccc12 [Example 261, N-(tert-butyl)-2-(pyridin-4-yl)-1,7-naphthyridin-4-amine] | 202 | 1220 | 1717 | 93 | 461 | 4308 |

| SMILES | IC50 [1] [nM] | IC50 [2] [nM] | EC50 [3] [nM] | Expansion factor [4] | Percentage of p63a-positive cells [5] [%] | Expansion factor (Fold Cell expansion) [6] | Endothelial Cell density in vitro [7] [cells/mm^2] |
| --- | --- | --- | --- | --- | --- | --- | --- |
| Cc1n[nH]cc1-c1nc(NC2(C)CC2)c2ccncc2n1 [Example 133, 2-(3-methyl-1H-pyrazol-4-yl)-N-(1-methylcyclopropyl)pyrido[3,4-d]pyrimidin-4-amine] | 4 | 414 | 1670 | 1205 | 89 | 273 | 2028 |

From patent US11458138B2 (Novartis AG, priority 2017, dated 2022)
